According to patent US6602856B1, “Antagonists of alpha-melanocyte stimulating hormone and methods based thereon” (priority 1995, dated 2003):
Non-standard residues stand in square brackets, D forms with d. No end group written: not given here. Nle = CCCC[C@H](N)C(=O)O

Tests used:
[1] = molecular target: T1, endogenous amphibian MSH-receptors (Xenopus laevis, UniProt A0A1L8GF34); assay type: cell-based; settings: against 15 nM α-MSH; melanophores pretreated with 1 nM melatonin; mean±SE
T1 sequence (A0A1L8GF34 1-317): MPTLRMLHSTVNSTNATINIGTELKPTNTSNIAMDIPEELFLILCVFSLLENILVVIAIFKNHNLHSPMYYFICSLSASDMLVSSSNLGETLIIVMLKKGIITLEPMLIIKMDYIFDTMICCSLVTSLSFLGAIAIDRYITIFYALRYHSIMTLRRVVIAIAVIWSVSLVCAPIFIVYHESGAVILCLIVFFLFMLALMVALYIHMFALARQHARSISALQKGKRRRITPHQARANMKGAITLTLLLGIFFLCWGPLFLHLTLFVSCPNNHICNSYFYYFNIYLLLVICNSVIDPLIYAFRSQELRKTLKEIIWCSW
Protocol: Melanin dispersion responses were quantitated by measuring transmittance through a monolayer of cultured melanophores pretreated with 1 nM melatonin (Potenza, et. al., 1992, Anal Biochem. 206, 315-22) and curve fit with a logistic equation (De Lean et al., 1978, Am J. Physiol. 235, E97-E102).
Broken lines indicate 99% confidence level.
(§1) Each point represents the mean and SSD of four independent transmittance measurements. Ti=initial transmittance (2 min.). Tf=final transmittance (60 min.).
(§2) For dose-response studies all tripeptides were synthesized on Rink Amide MBHA resin 0.25 mmol scale using standard Fmoc chemistry. After synthesis, peptides were purified suing HPLC and reverse-phase chromatography on a C18 column. The dose-response curves were obtained by microtiter plate assays (Potenza et al, 1992, Pigment Cell Res. 5, 372-378). Melanophore cells (18,000/well) were plated on 96-well tissue culture plates (Falcon).

[2] = tested on: cAMP stimulation evoked by AVT; test: AVT evoked intracellular cAMP stimulation in Xenopus melanophores; assay type: cell-based, Xenopus laevis; settings: AVT 8 nM
Protocol: (§3) Oxytocin antagonist GVT ([d(CH2)5, Tyr (Me)^2, Orn^8]-Vasotocin; from Peninsula), at 20 μM, is used as a control to block responses evoked by 8 Nm AVT. Intracellular CAMP measurements were taken from confluent Xenopus melanophores grown in 24-well tissue culture plates (Falcon). Each bar represents the mean and SSD of four independent measurements. *(T-test; P<0.001) for all groups except those bearing asterisks.
(§4) Melanophores were plated confluently into 24-well tissue culture (Falcon) plates two days before the assay. Immediately prior to an assay, cells were washed with 70% L-15 medium (Sigma) containing 0.05% bovine serum albumin and then treated with 1 nm melatonin in the same medium. Then, cells were washed for 5 min in 70% L-15+0.05% bovine serum albumin+0.5 mm 3-isobutyl-1-methylxanthine (Aldrich)+1 nm melatonin, followed by 30 min of treatment with the test drug in the same media. After the drug treatment, cells were washed twice with 70% phosphate-buffered saline.
(§5) Oxytocin antagonist GVT ([d(CH2)5, Tyr (Me)^2, Orn^8]-Vasotocin; from Peninsula), at 20 μM, is used as a control to block responses evoked by 8 nM AVT.

[3] = tested on: α-MSH mediated cAMP second messenger stimulation; test: α-MSH mediated intracellular cAMP stimulation in Xenopus melanophores; assay type: cell-based, Xenopus laevis; settings: peptide at 40 μM; α-MSH 10 nM
Protocol: as §3, §4, §5

[4] = tested on: vasoactive intestinal peptide (VIP) activated pigment dispersion in Xenopus melanophores; settings: read-out: EC50 (pigment dispersion)
Protocol: as §1, §2
(§6) The 221,184 component library was organized as 96 sub-libraries with 2,304 different peptide combinations per pool, each defined by the chemical structure of the amino terminal position.

[5] = tested on: [Arg^8]-vasotocin (AVT) activated pigment dispersion in Xenopus melanophores; settings: read-out: EC50 (pigment dispersion)
Protocol: as §1, §2, §6

Row | Substance | IC50 (μM) [1] | also measured
1 | D-Trp-Arg-Ala-NH2 [A13] | Inactive | 
2 | D-Trp-Arg-Nle-NH2 [A2] |  | block of cAMP stimulation evoked by AVT ([2]; peptide at 40 μM): does not block; block of α-MSH mediated cAMP stimulation [3]: blocks
3 | D-Trp-Arg-βAla-NH2 [A14] | Inactive | 
4 | D-Trp-Arg-γAbu-NH2 [A11] | Inactive | 
5 | D-Trp-Arg-εAhx-NH2 [A12] | Inactive | 
6 | Vasoactive Intestinal Peptide [VIP] |  | EC50 [4]: ~1 nM
7 | [Arg^8]-vasotocin [AVT] |  | EC50 [5]: ~2 nM
8 | [d(CH2)5, Tyr (Me)^2, Orn^8]-Vasotocin [GVT, reference compound] |  | block of responses evoked by AVT (cAMP) ([2]; antagonist at 20 μM, control): block
9 | [dW]-Asp-[Nle]-NH2 [B8] | Inactive | 
